The record followed here is patent US9315489B2, “Compounds and compositions for inhibiting the activity of ABL1, ABL2 and BCR-ABL1” (Novartis AG, priority 2012, dated 2016).

The nature of data set [1]: Compound concentration in mouse brain and plasma. The data set is classed as in vivo. The following applies: 5 minutes after a single intravenous injection of 1 mg/kg in mice; for Kp at 5 min / concentration at 5 min: mouse; for Kp at 5 min: brain/plasma, read-out: Mean Ratio (brain/plasma); for concentration at 5 min: plasma, read-out: Mean blood (drug concentration in plasma).
Description: Approximately two parts volume of MeOH/water (2/8 v/v) were added to the preweighted brain samples (˜250 mg) and subsequently homogenized using Covaris™ instrument. A 50 μL aliquot was subjected to protein precipitation and analysis as described below.
Fifty μL aliquots of blood or brain homogenate from animals treated with c-ABL inhibitors were first spiked with 5 μL of the internal standard (N-(4-methyl-3-((4-(6-methylpyridin-3-yl)pyrimidin-2-yl)amino)phenyl)-4-((4-methylpiperazin-1-yl)methyl)benzamide for positive ion mode 5-chloro-N-(4-(N-(cyclohexylcarbamoyl)sulfamoyl)-phenethyl)-2-methoxybenzamide for negative ion mode, respectively), subsequently deproteinated by adding MeCN (200 μL), centrifuged, the supernatant evaporated to dryness, and re-dissolved in 100 μL of a MeOH/water (1/1 v/v). Five μL were subjected to HPLC-MS/MS analysis. Chromatographic separation from interfering endogenous and exogenous contaminants was achieved on an Phenomenex™ Polar RP reversed-phase HPLC column (particle size: 2.5 μm; column dimensions: 2×50 mm) using a linear gradient of 100% water containing 1% formic acid (A), and MeOH supplemented with 1% formic acid (B), which was run over 6.0 min from 5% to 90% B, then kept at 100% B for 1.0 min, and a subsequent 1.5 min postrun with re-equilibration of the column. The column was kept at 50° C. The flow of 350 μL/min from the HPLC system (Flux Rheos Allegro LC pump and CTC Pal autosampler) was directly introduced into the ion source of an Finnigan™ Quantum Ultra MS-detector (triple stage quadrupole mass analyzer) and subjected to heated electrospray ionization (HESI).
c-ABL inhibitors were specifically detected using multiple reaction monitoring from their quasi-molecular parent ion ([M+H]^+ or [M−H]^−) to specific daughter ions as given in the table below. Quantification of blood and brain levels of c-ABL inhibitors compounds were based on a 6-level calibration curve made in triplicate.

The test system of the next data set is Ba/F3-BCR-ABL1-WT cells. Nature of the data set: Ba/F3-BCR-ABL1-WT cellular proliferation assay. Type of data set: cell-based, murine. The following applies: Mus musculus; 48 hours; read-out: Ba/F3-BCR-ABL1-WT IC50.
For data set [2], the target named is T1, ABL1 (64-515) (Homo sapiens (Human), UniProt P00519). The experiment in a line: Radio ABL1 (64-515) assay (radiometric filter-binding). The data set is classed as biochemical.
Description: For determination of ABL kinase activity, the radiometric filter-binding assay was used. […] Pre-incubation of enzyme with compounds (when stated) was performed by exposing the enzyme to compounds prior to addition of the substrate mixture (ATP and/or peptide substrate). […] Millipore, Volketswil, Switzerland) prepared according to the manufacturer's instructions. Filter-plates were washed 3× with 0.5% H3PO4, followed by addition of 30 μL scintillation cocktail (Microscint, Perkin Elmer) per well and then analysed in a TopCount NXT scintillation counter (Perkin Elmer). Results were expressed as IC50 values.
For data set [3], the target named is T1, ABL1 (64-515). The experiment in a line: Caliper ABL1 (64-515) assay (microfluidic mobility shift). Type of data set: biochemical.
Description: All assays were performed in 384-well microtiter plates. Each assay plate contained 8-point serial dilutions for 40 test compounds, as well as four 8-point serial dilutions of staurosporine as a reference compound, plus 16 high and 16 low controls. Liquid handling and incubation steps were done on a Thermo CatX workstation equipped with Innovadyne Nanodrop Express. Between pipetting steps, tips were cleaned in wash cycles using wash buffer.
The assay plates were prepared by addition of 50 nL per well of compound solution in 90% DMSO. […] Plates with terminated kinase reactions were transferred to the Caliper LC3000 workstations for reading. Phosphorylated and unphosphorylated peptides were separated using the Caliper microfluidic mobility shift technology. Briefly, samples from terminated kinase reactions were applied to the chip. Analytes are transported through the chip by constant buffer flow and the migration of the substrate peptide is monitored by the fluorescence signal of its label. Phosphorylated peptide (product) and unphosphorylated peptide (substrate) are separated in an electric field by their charge/mass ratio. Kinase activities were calculated from the amounts of formed phospho-peptide. IC50 values were determined from percent inhibition values at different compound concentrations by non-linear regression analysis.
Test compounds were dissolved in DMSO (10 mM) and transferred into 1.4 mL flat bottom or V-shaped Matrix tubes carrying a unique 2D matrix. The stock solutions were stored at +2° C. if not used immediately. For the test procedure the vials were defrosted and identified by a scanner whereby a working sheet was generated that guided the subsequent working steps.
Compound dilutions were made in 96-well plates. This format enabled the assay of maximally 40 individual test compounds at 8 concentrations (single points) including 4 reference compounds. The dilution protocol included the production of “pre-dilution plates”, “master plates” and “assay plates”.
Polypropylene 96-well plates were used as pre-dilution plates. […] All dilution steps were done on a HamiltonSTAR robot.
These plates were used directly for the assay which was performed in a total volume of 9.05 μL.

Each structure is given as a SMILES string.

T1 sequence (P00519 64-515): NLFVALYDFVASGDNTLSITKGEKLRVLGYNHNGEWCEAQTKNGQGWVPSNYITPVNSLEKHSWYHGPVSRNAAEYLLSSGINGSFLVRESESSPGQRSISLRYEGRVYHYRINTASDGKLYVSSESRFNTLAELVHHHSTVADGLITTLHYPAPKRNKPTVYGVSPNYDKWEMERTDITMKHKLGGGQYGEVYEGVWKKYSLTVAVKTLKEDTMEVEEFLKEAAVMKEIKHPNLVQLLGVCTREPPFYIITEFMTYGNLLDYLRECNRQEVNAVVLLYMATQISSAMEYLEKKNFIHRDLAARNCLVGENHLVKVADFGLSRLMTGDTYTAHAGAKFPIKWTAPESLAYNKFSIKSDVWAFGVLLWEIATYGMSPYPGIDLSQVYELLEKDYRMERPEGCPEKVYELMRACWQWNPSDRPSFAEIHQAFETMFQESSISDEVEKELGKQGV
Excerpt for Ba/F3-BCR-ABL1-WT cells: The murine bone marrow-derived cell line Ba/F3 was used to generate the appropriate cell line models. Ba/F3 cells were obtained from the German Collection of Microorganisms and Cell Cultures (DSMZ, Braunschweig and DSMZ No. ACC 300). […] These cells are referred to as Ba/F3-WT.
To generate Ba/F3 cells that depend on BCR-ABL1 expression for growth and survival, Ba/F3 cells were engineered to express BCR-ABL1 using retroviral transduction with a MSCV based retroviral vector containing a p210 BCR-ABL1expression cassette. […] These cells are referred to as Ba/F3-BCR-ABL1-WT.
Ba/F3-WT cells were maintained in RPMI1640 media with L-glutamine, HEPES (Lonza), 10% FBS (Gibco) and 5 ng/ml IL-3 (Calbiochem).
For each cell line, the cell density was adjusted to 50 000 cells/mL and 50 μL (2500 cells) added per well of a 384-well assay plate.
Test compounds were resuspended in DMSO at a concentration of 10 mM. A serial three-fold dilution of each compound with DMSO was performed in 384-well plates using the Janus Liquid Dispenser (PerkinElmer). Compound was delivered to the assay plates containing 2500 cells in a 50 μL volume via Acoustic delivery from an ATS-100 (EDC).
Cells were incubated at 37° C. in a humidified environment with 5% carbon dioxide for 48 hours. Britelite plus solution (Perkin Elmer) was prepared according to the manufacturer's instructions and 25 μL added to each well of the assay plate. […] The degree of luminescence correlates with the number of cells in each well. The effect of each inhibitor concentration can therefore be calculated and IC50 values generated.

In the case of `COc1ncc(-c2cc(C(=O)Nc3ccc(OC(F)(F)F)cc3)ccc2C)cn1` [Example 13, 3-(2-Methoxypyrimidin-5-yl)-4-methyl-N-(4-(trifluoromethoxy)phenyl)benzamide], in data set [1], the “Mean brain (drug concentration in brain)” value worked out at 4011 pmol/g, the Kp at 5 min was 1.29 and the concentration at 5 min is 3090 nM. Further, the IC50 in the data set with Ba/F3-BCR-ABL1-WT cells stood at 0.0049 µM. At ABL1 (64-515) [2], this compound came in with an IC50 of 0.003 µM.

On to `Cc1ccc(C(=O)Nc2ccc(OC(F)(F)F)cc2)cc1-c1cccnc1` [Example 15, 4-Methyl-3-(pyridin-3-yl)-N-(4-(trifluoromethoxy)phenyl)benzamide], for which, in data set [1], the “Mean brain (drug concentration in brain)” value came out at 6847 pmol/g, the Kp at 5 min was found to be 3.2 and the concentration at 5 min came to 2140 nM. Further, the IC50 in the data set on Ba/F3-BCR-ABL1-WT cells was determined as 0.011 µM. The same compound came in with an IC50 on ABL1 (64-515) [2] of 0.004 µM.

`Cc1ccc(C(=O)Nc2ccc(OC(F)(F)F)cc2)cc1-c1cncs1` [Example 17, 4-Methyl-3-(thiazol-5-yl)-N-(4-(trifluoromethoxy)phenyl)benzamide]: in data set [1], the “Mean brain (drug concentration in brain)” value stood at 6985 pmol/g, the Kp at 5 min came to 2.3 and the concentration at 5 min was 3030 nM. Besides, in the data set on Ba/F3-BCR-ABL1-WT cells, the IC50 is 0.027 µM. Besides, the IC50 at ABL1 (64-515) [2] is 0.003 µM.

`Cc1ncc(C(=O)Nc2ccc(OC(F)(F)F)cc2)cc1-c1cncnc1` [Example 43, 6-Methyl-5-(pyrimidin-5-yl)-N-(4-(trifluoromethoxy)phenyl)nicotinamide]: the figures for the IC50 on ABL1 (64-515) [3], in the data set with Ba/F3-BCR-ABL1-WT cells and on ABL1 (64-515) [2] were 0.0023 µM, 0.01 µM and 0.003 µM, respectively.

`N#CC1(c2ncc(C(=O)Nc3ccc(OC(F)(F)F)cc3)cc2-c2cncnc2)CCOCC1` [Example 46, 6-(4-Cyanotetrahydro-2h-pyran-4-yl)-5-(pyrimidin-5-yl)-N-(4-(trifluoromethoxy)phenyl)nicotinamide]: the IC50 on ABL1 (64-515) [3] was 0.0066 µM.

In the case of `COCCOc1ncc(C(=O)Nc2ccc(OC(F)(F)F)cc2)cc1-c1cncnc1` [Example 51, 6-(2-Methoxyethoxy)-5-(pyrimidin-5-yl)-N-(4-(trifluoromethoxy)phenyl)nicotinamide], the IC50 on ABL1 (64-515) [3] came out at 0.051 µM; on ABL1 (64-515) [2] it was 0.063 µM.

For `O=C(Nc1ccc(OC(F)(F)F)cc1)c1cnc(OC2CCOCC2)c(-c2cncnc2)c1` [Example 53, 5-(Pyrimidin-5-yl)-6-((tetrahydro-2h-pyran-4-yl)oxy)-N-(4-(trifluoromethoxy)phenyl)nicotinamide], the figures for the IC50 at ABL1 (64-515) [3] and on ABL1 (64-515) [2] were 0.022 µM and 0.0089 µM, respectively.

Consider `O=C(Nc1ccc(OC(F)(F)F)cc1)c1cc(-c2cncnc2)ccc1F` [Example 59, 2-Fluoro-5-(pyrimidin-5-yl)-N-(4-(trifluoromethoxy)phenyl)benzamide], for which the IC50 was determined as 0.093 µM on ABL1 (64-515) [3] and 0.02 µM at ABL1 (64-515) [2].

Regarding `Nc1ncc(-c2cncc(C(=O)Nc3ccc(OC(F)(F)F)cc3)c2)cn1` [Example 61, 5-(2-Aminopyrimidin-5-yl)-N-(4-(trifluoromethoxy)phenyl)nicotinamide], the IC50 at ABL1 (64-515) [3] is 0.0315 µM; on ABL1 (64-515) [2], 0.0035 µM.

In the case of `O=C(Nc1ccc(OC(F)(F)F)cc1)c1cncc(-c2cnn(CCO)c2)c1` [Example 64, 5-(1-(2-Hydroxyethyl)-1H-pyrazol-4-yl)-N-(4-(trifluoromethoxy)phenyl)nicotinamide], the IC50 at ABL1 (64-515) [3] amounted to 0.2 µM; at ABL1 (64-515) [2], 0.114 µM.

Regarding `O=C(Nc1ccc(OC(F)(F)F)cc1)c1cccc(-c2cncnc2)n1` [Example 73, 6-(Pyrimidin-5-yl)-N-(4-(trifluoromethoxy)phenyl)picolinamide], the IC50 came out at 0.54 µM at ABL1 (64-515) [3], 1.87 µM in the data set on Ba/F3-BCR-ABL1-WT cells and 0.684 µM at ABL1 (64-515) [2].

In the case of `O=C(Nc1ccc(OC(F)(F)F)cc1)c1cncc(-c2cccnc2)c1` [Example 74, N-(4-(Trifluoromethoxy)phenyl)-[3,3′-bipyridine]-5-carboxamide], in data set [1], the “Mean brain (drug concentration in brain)” value came out at 8509 pmol/g, the Kp at 5 min was 3.29 and the concentration at 5 min was 2580 nM. The IC50 in the data set on Ba/F3-BCR-ABL1-WT cells came out at 0.03 µM. This compound also registered an IC50 on ABL1 (64-515) [2] of 0.0087 µM.

As for `O=C(Nc1ccc(OC(F)(F)F)cc1)c1cnc(Cl)c(-c2cncc(F)c2)c1` [Example 77, 2-Chloro-5′-fluoro-N-(4-(trifluoromethoxy)phenyl)-[3,3′-bipyridine]-5-carboxamide], the values for the IC50 at ABL1 (64-515) [3] and in the data set with Ba/F3-BCR-ABL1-WT cells were 0.0049 µM and 0.013 µM, respectively.

For `O=C(Nc1ccc(OC(F)(F)F)cc1)c1cnc(Cl)c(-c2cccnc2)c1` [Example 79, 2-Chloro-N-(4-(trifluoromethoxy)phenyl)-[3,3′-bipyridine]-5-carboxamide], the IC50 is 0.01 µM at ABL1 (64-515) [3] and 0.006 µM with Ba/F3-BCR-ABL1-WT cells.

Consider `O=C(Nc1ccc(OC(F)(F)F)cc1)c1cnc(Cl)c(-c2ccn[nH]2)c1` [Example 80, 6-Chloro-5-(1H-pyrazol-5-yl)-N-(4-(trifluoromethoxy)phenyl)nicotinamide], for which the IC50 on ABL1 (64-515) [3] worked out at 0.055 µM.
